Counter-ions that a name gives are not always drawn.
Legend:
[1] = Ability of polymer counter ion pair to solubilise lipid: visual clarity of polymer counter ion/PL mixtures as pH is adjusted; settings: for ion pairing with SMA 1:1 leading to formation of SMA/PL macromolecular assemblies: hydrochloride salts as cationic counter ions
[2] = Stability of the mixtures after 2-4 mths at 4° C.; type: physicochemical; design: key to Stability* After 2-4 mths + at 4° C.: S-stable; PS—partially stable; NS—not stable
[3] = SMA 1:1 50 mg, DLPC 20 mg (2.5:1), 2 ml, amine HCl [% w/w]: isopentylamine 3 mg [0.15], isobutylamine 9 mg [0.45] (clears on standing 3 days), tyramine 5-6 mg [0.25-0.3], diphenhydramine 2.5-4 mg [0.13-0.2], phenylalanine ethyl ester 10 mg [0.5], tolazoline 5 mg [0.25], naphazoline 5 mg, start pH 7 or 8
[4] = SMA 1:1 50 mg, DLPC 20 mg, 2 ml, amine HCl: isopentylamine 3 mg, isobutylamine 9 mg, tyramine 5-6 mg, diphenhydramine 2.5-4 mg, phenylalanine ethyl ester 10 mg, tolazoline 5 mg, naphazoline 8 mg total
[5] = SMA 1:1 50 mg, DLPC 20 mg, 2 ml, phenylalanine ethyl ester 'Cleared,', tolazoline 'Remains clear overnight,', naphazoline 'Virtually clear'
[6] = SMA 1:1 50 mg, DLPC 20 mg, 2 ml, naphazoline HCl further 3 mg, 8 mg [0.4% w/w] total

c1ccc(CC2=NCCN2)cc1 [2-Benzyl-2-imidazoline (tolazoline), 2-benzyl-2-imidazoline, reference compound]
pH for clear sample ([1]; Poly(methacrylic acid) sodium 4-6k 50 mg (preformed PMA + Bz), DLPC 10 mg (5:1), 2 ml, start pH 7-8, tolazoline HCl 22 mg [1.1% w/w], printed 'ppt & clear'): 6, ppt & | pH for clear sample [1, 3]: 7-8, | collapse pK of the 1:1 SMA polymer when associating with PL ([1]; imidazoline counter ion in place of a primary amine): ~7 | Stability* After 2-4 mths + at 4° C. [2, 4]: S | Stability, appearance in words [2, 5]: clear

Nc1ccc(C(=O)O)cc1 [4-amino benzoic acid (PABA), 4-amino benzoic acid]
ion pairing with SMA 1:1 leading to formation of SMA/PL macromolecular assemblies [1]: failed

CN(C)CCOC(c1ccccc1)c1ccccc1 [Diphenhydramine, diphenhydramine hydrochloride, reference compound]
pH at which ppt forms ([1]; SMA 1:1 50 mg, DLPC 20 mg, 2 ml, diphenhydramine HCl 2.5-4 mg [0.13-0.2% w/w]): ppt 6

CC(C)CN [Isobutylamine]
pH for clear sample ([1]; Poly(maleic acid) 50 mg, DLPC 2 mg (25:1), isobutyl amine HCl further 5 mg, 20 mg [1.0% w/w] total, printed 'No clearing.'): No | pH for clear sample ([1]; Poly(maleic acid) 50 mg, DLPC 2 mg, isobutyl amine HCl further 5 mg, 25 mg [1.25% w/w] total, at pH 8, printed '8, No clearing.'): 8, No | pH for clear sample ([1]; Poly(maleic acid) 50 mg, DLPC further 2, total 4 mg (12.5:1), isobutyl amine HCl 25 mg, complete clearing, fine white flecks): 3, Complete | pH at which ppt forms ([1]; Poly(maleic acid) 50 mg, DLPC total 4 mg (12.5:1), isobutyl amine HCl 25 mg): 4 ppt. | pH for clear sample ([1]; Poly(maleic acid) ex PolyS 50 mg, 2 ml, start pH 8, isobutyl amine HCl 15 mg [0.75% w/w], no DLPC entered in this line): 7 | pH at which ppt forms ([1]; Poly(methacrylic acid) sodium 4-6k 50 mg, DLPC 10 mg (5:1), 2 ml, start pH 6, isobutyl amine HCl 10 mg [0.5% w/w]): 4, ppt | pH for clear sample ([1]; Poly(methacrylic acid) sodium 4-6k 50 mg, DLPC 10 mg, isobutyl amine HCl 24 mg [1.2% w/w] total): ppt, 5 | pH at which slight clouding occurs ([1]; Poly(methacrylic acid) sodium 4-6k 50 mg, DLPC 10 mg, isobutyl amine HCl 36 mg [1.8% w/w] total): 5, slight | pH for clear sample [1, 3]: 8, clears | Stability, appearance in words ([2]; Poly(methacrylic acid) sodium 4-6k 50 mg, DLPC 10 mg, isobutyl amine HCl 10 mg [0.5% w/w]): Clear | Stability, appearance in words ([2]; Poly(methacrylic acid) sodium 4-6k 50 mg, DLPC 10 mg, isobutyl amine HCl 24 mg then 36 mg total, printed 'Clear overnight few white ppt particles'): Clear | Stability* After 2-4 mths + at 4° C. [2, 4]: S

CC(C)CCN [Isopentylamine, Isopentyl amine]
pH for clear sample [1, 3]: 7, Clear | Stability* After 2-4 mths + at 4° C. [2, 4]: NS

N[C@@H](Cc1ccc(O)c(O)c1)C(=O)O [L-dopa, reference compound]
ion pairing with SMA 1:1 leading to formation of SMA/PL macromolecular assemblies [1]: failed

NC[C@H](O)c1ccc(O)c(O)c1 [L-norepinephrine, reference compound]
ion pairing with SMA 1:1 leading to formation of SMA/PL macromolecular assemblies [1]: failed

c1ccc2c(CC3=NCCN3)cccc2c1 [Naphazoline, naphazoline hydrochloride, reference compound]
pH for clear sample [1, 3]: 8, Clear | pH at which sample is cloudy [1, 6]: Cloudy 7, | pH for clear sample [1, 6]: Clear 8-9. | ion pairing with SMA 1:1 leading to formation of SMA/PL macromolecular assemblies [1]: can also surprisingly be used as ion pairs | Stability* After 2-4 mths + at 4° C. [2, 4]: PS | Stability, appearance in words [2, 5]: clear

Cl.NCCc1ccccc1 [PEA, 2-Phenylethylamine hydrochloride]
collapse pH ([1]; 2% PEA added to a 2.5% solution of 1:1 SMA): 8-9 | pH for clear sample ([1]; SMA 1:1 40 mg, DLPC 20 mg (2:1), final vol 1.6 ml, PEA HCl 4.4 mg [0.25% w/w]): 7, Clear | pH for clear sample ([1]; SMA 1:1 40 mg, DLPC 20 mg, final vol 1.64 ml, further 2.9 mg PEA HCl, 7.3 mg [0.45% w/w] total): 10, Clear | pH for clear sample ([1]; SMA 1:1 50 mg, DLPC 25 mg (2:1), final vol 2 ml, PEA HCl 40 mg [2% w/w]): 8.5 clear | pH for clear sample ([1]; SMA 2:1 50 mg, DLPC 25 mg (polymer:lipid 2:1), final vol 2 ml, PEA HCl 40 mg [2% w/w]): 9 clear | pH over which the polymer collapses to interact with phospholipid ([1]; ratio SMA(1:1):PEA 5:4): 8.5 | pH over which the polymer collapses to interact with phospholipid ([1]; ratio SMA(1:1):PEA 9:1): 7.0 | Stability* After 2-4 mths + at 4° C. ([2]; SMA 1:1 40 mg, DLPC 20 mg, 1.6 ml, PEA HCl 4.4 mg [0.25% w/w]): NS | Stability* After 2-4 mths + at 4° C. ([2]; SMA 1:1 50 mg, DLPC 25 mg, 2 ml, PEA HCl 40 mg [2% w/w]): PS

CCOC(=O)[C@@H](N)Cc1ccccc1.Cl [Phenylalanine ethyl ester, L-phenylalanine ethyl ester hydrochloride]
pH for clear sample [1, 3]: 8, Clears | Stability* After 2-4 mths + at 4° C. [2, 4]: PS | Stability, appearance in words [2, 5]: Cleared,

NCCc1ccc(O)cc1 [Tyramine, tyramine]
ion pairing with SMA 1:1 leading to formation of SMA/PL macromolecular assemblies [1]: can also surprisingly be used as ion pairs | Stability* After 2-4 mths + at 4° C. [2, 4]: S

CN(C)CCCC1c2ccccc2CCc2ccccc21 [amitryptyline hydrochloride, reference compound]
ion pairing with SMA 1:1 leading to formation of SMA/PL macromolecular assemblies [1]: only partially formed

CCOC(=O)c1ccc(N)cc1 [benzocaine, reference compound]
ion pairing with SMA 1:1 leading to formation of SMA/PL macromolecular assemblies [1]: failed

NCCc1ccc(O)c(O)c1 [dopamine, reference compound]
ion pairing with SMA 1:1 leading to formation of SMA/PL macromolecular assemblies [1]: failed

COc1cc(C(O)CN)ccc1O (stereo not drawn) [normetanephrine]
ion pairing with SMA 1:1 leading to formation of SMA/PL macromolecular assemblies [1]: failed

NCC(O)c1ccc(O)cc1 (stereo not drawn) [octopamine]
ion pairing with SMA 1:1 leading to formation of SMA/PL macromolecular assemblies [1]: failed
